{
  "source": "patent US20110306570A1",
  "about": "“Na/K-Atpase Expression as an Indicator for the Treatment of Cancer” (UNIVERSITY OF TOLEDO, priority 2008, published 2011)",
  "key": {"[1]": {"tested_on": "DU145 cells", "assay": "MTT cell growth assay, DU145 cells", "format": "cell-based, human", "details": "24 h", "experimental": "FIG. 1A: LLC-PK1 cells, BT20 cells, and DU145 cells were subcultured in 96-well plates (10,000 cells/well) and serum starved. […] Cells were solublized by adding 100 μl/well detergent provided by ATCC after 90 min of incubation and OD570 was then measured.\nMTT assay for measuring cell proliferation: Cells were sub-cultured in 96 well plates at 10,000 cells/well in 100 μl culture medium. […] Ten μl MTT reagent (3-4,5-dimethylthiazol-2-yl)-2,5-diphenyltetrazolium bromide) was added to each well for 90 min. The formazan crystal was dissolved with detergent and the OD value was measured at 570 nm."}, "[2]": {"tested_on": "Na/K-ATPase β1", "assay": "Na/K-ATPase β1 expression by Western blot, LLC-PK1 cells", "format": "cell-based, pig", "details": "10 nM ouabain, 24 h", "text": "Na/K-ATPase, but also in the formation of tight junctions and in suppression of tumor cell growth."}, "[3]": {"tested_on": "Akt", "assay": "Akt phosphorylation, PY-17 cells", "format": "cell-based, pig", "details": "ouabain, data not shown"}},
  "data": [
    {"compound": "C[C@@H]1O[C@@H](O[C@H]2C[C@@H](O)[C@]3(CO)[C@H]4[C@H](O)C[C@]5(C)[C@@H](C6=CC(=O)OC6)CC[C@]5(O)[C@@H]4CC[C@]3(O)C2)[C@H](O)[C@H](O)[C@H]1O", "note": "[ouabain]", "values": [
      {"measurement": "effect on cell growth (MTT)", "setting": "[1]; 10-50 nM ouabain", "value": "significant inhibition of cell growth"},
      {"measurement": "stimulatory effect on cell growth (MTT)", "setting": "[1]; different concentrations of ouabain", "value": "failed to detect any stimulatory effect"},
      {"measurement": "Na/K-ATPase β1 expression", "setting": "[2]", "value": "modest increase in β1 expression"},
      {"measurement": "Akt phosphorylation", "setting": "[3]", "value": "no effect on Akt phosphorylation"}
    ]}
  ]
}
